ChEMBL document CHEMBL1138766, “Synthesis and biological evaluation of new acinetoferrin homologues for use as iron transport probes in mycobacteria” (2004)

test system: Mycobacterium avium; test: Growth index for Mycobacterium avium sub species paratuberculosis was measured relative to mycobactin J; type: functional

SMILES	Growth Index
CCCCCCCCCCCCC/C=C/C(=O)N(O)CCCC[C@H](NC(=O)[C@@H]1CCC(c2ccccc2O)=N1)C(=O)OC(C(C)C)C(C)C(=O)N[C@H]1CCCCN(O)C1=O (stereo partly specified)	1
CCCCC/C=C/C(=O)N(O)CCCCCNC(=O)CC(O)(CC(=O)NCCCCCN(O)C(=O)/C=C/CCCCC)C(=O)O	0.96
CCCCC/C=C/C(=O)N(O)CCCCCCNC(=O)CC1(O)CC(=O)N(CCCCCCN(O)C(=O)/C=C/CCCCC)C1=O (stereo unspecified)	1.01
CCCCC/C=C/C(=O)N(O)CCCCCNC(=O)CC1(O)CC(=O)N(CCCCCN(O)C(=O)/C=C/CCCCC)C1=O (stereo unspecified)	1.17
CCCCC/C=C/C(=O)N(O)CCCCCCNC(=O)CC(O)(CC(=O)NCCCCCCN(O)C(=O)/C=C/CCCCC)C(=O)O	0.95
CC(=O)N(O)CCCCCNC(=O)CCC(=O)N(O)CCCCCNC(=O)CCC(=O)N(O)CCCCCN [DEFEROXAMINE]	1.09
